{"source": "patent EP0702551B1", "about": "“COMPOSITIONS AND METHODS FOR REPARATION AND PREVENTION OF FIBROTIC LESIONS” (MARGOLIN, Solomon B., priority 1993, dated 1994)", "key": {"Pulmonary fibrosis": {"test_system": "Pulmonary fibrosis", "experiment": "Clinical human open trial, pulmonary fibrosis", "assay_type": "in vivo", "procedure": "(§1) Clinical human open trials have been undertaken as follows: • 1. Pulmonary fibrosis diagnosed as caused by asbestos was treated with pirfenidone and closely and objectively followed in two subjects. […] Pulmonary fibrosis diagnosed as idiopathic in nature was treated with pirfenidone and closely and objectively followed in one subject for over two years. […] Two subjects suffered from frequency, severe nocturia, incontinence, constant urgency, and in the third these symptoms were less severe. Clinically, all had enlarged prostates that explained the symptoms. The results were dramatic in the eldest subject within two weeks of therapy. Nocturia of 6-7 trips (every 60-90 minutes) per night was reduced to 1 or 2 nightly (4-5 hours apart). In the other two patients, nocturia 3-4 times (every 2-3 hours) was reduced to once nightly 4-5 hours after retiring. […] Inhibition of excessive scar formation by direct application of pirfenidone ointment to skin lesions in 10 cases."}, "[1]": {"test_system": "fibrosis (interstitial hyperplasia)", "experiment": "Histopathological examination of rat lungs for fibrosis after three months of drug in the diet", "assay_type": "in vivo", "details": "rats; for Lung Connective Tissue Score, Mean: 300 mg/kg (p.o.) in the diet for three months, score 0, 1, 2, 3 = degree of fibrosis, control mean 1.63, 300 mg/kg", "procedure": "The results of a histopathological examination of the lungs of rats for fibrosis (interstitial hyperplasia) after receiving 300mg/kg body weight of pirfenidone in the diet for three months are summarized in Table 2. The individual microscopic readings of the lung are also shown in Table 2, where a score schedule of 0, 1, 2, and 3 reflects the degree of fibrosis.\nThe data in Table 2 reveal a statistically significant reduction in the amount of fibrosis in rats receiving pirfenidone as compared to placebo control rats (Group 1). The mean score for the controls (Group 1) was 1.63 +/-0.23, and for Group IV (pirfenidone, 300mg/kg body weight daily was 0.95 +/-0.23.\nStudent's T value was 2.43, with P less than 0.02 (highly significant statistically)."}, "[2]": {"test_system": "Fibrosis of the ventricular myocardium", "experiment": "Clinical human open trial, fibrosis of the ventricular myocardium", "assay_type": "in vivo", "procedure": "as §1"}, "[3]": {"test_system": "Benign prostate hypertrophy", "experiment": "Clinical human open trial, benign prostate hypertrophy", "assay_type": "in vivo", "procedure": "as §1"}, "[4]": {"test_system": "CYCLOPHOSPHAMIDE-INDUCED IN[…]", "experiment": "Cyclophosphamide-induced interstitial fibrosis in mice", "assay_type": "in vivo", "excerpt": "In mice, pulmonary fibrosis induced with cyclophosphamide […] and is know to produce pulmonary fibrosis in patients as a side effect."}, "[5]": {"test_system": "PULMONARY INTERSTITIAL HYPERPLASIA (FIBROSIS)", "experiment": "Pulmonary interstitial hyperplasia (fibrosis) in dogs, oral capsules, microscopic scoring", "assay_type": "in vivo, Beagle dogs", "details": "for Hyperplasia Scores 0 (number of dogs): 0 = normal tissue; for Hyperplasia Scores 1 (number of dogs): 1 = minimal; for Hyperplasia Scores 2 (number of dogs): 2 = moderate; for Hyperplasia Scores 3 (number of dogs): 3 = severe; for Incidence of Normal Lung: control 0/9", "procedure": "The mean score for Group I (Control) was 2.11 +/-0.31, and for Group IV, which received pirfenidone, 150 mg/kg per day orally in capsules, was 0.22 +/-0.19."}, "[6]": {"test_system": "ASBESTOS-INDUCED PULMONARY IN[…]", "experiment": "Asbestos-induced pulmonary interstitial fibrosis in hamsters", "assay_type": "in vivo", "excerpt": "In hamsters, pulmonary fibrosis induced with crysotile asbestos was removed following oral pirfenidone (Table 4).\nThe novel role of pirfenidone in the therapeutic repair of fibrotic lung tissue featuring removal of fibrotic lesions, and concomitant regeneration of normal lung tissue has been observed in experimental asbestosis by histopathological examination of lung tissue specimens under the light microscope, and electron microscopy (Table 4).\nThis was subsequently confirmed by ashing of lung specimens in a laboratory oven, and then determining the asbestos content."}, "Acute toxicity (LD), cat": {"experiment": "Acute toxicity (LD), cat", "details": "in vivo", "excerpt": "The acute toxicity of the ingredient in the medical composition of the present invention which exerts the anti-fibrotic activity is as shown in the table below: […]"}, "[7]": {"details": "300 mg/kg (p.o.), three months, 19 animals"}, "[8]": {"details": "GROUP II: cyclophosphamide 200 mg/kg i.p. plus 500 mg/kg/day p.o."}, "[9]": {"details": "group average, asbestos + 500 mg/kg/day in the diet two months, asbestos only 2.75+/-0.25"}, "[10]": {"details": "individual hamsters, asbestos + 500 mg/kg/day in the diet two months, 0 = normal tissue, 1 = minimal, 2 = moderate, 3 = severe, 500 mg/kg/day"}}, "note": "Where “and” joins values, the source holds several entries; their conditions need not be identical. Equal values may be shown once. Marks after values point to notes of the source that are not given here.", "data": [{"smiles": "Cc1ccc(=O)n(-c2ccccc2)c1", "note": "[pirfenidone, 5-methyl-1-phenyl-2-(1H) pyridone]", "values": [{"measurement": "Clinical impressions", "setting": "Pulmonary fibrosis; pulmonary fibrosis diagnosed as caused by asbestos, two subjects", "value": "dramatic and highly favorable"}, {"measurement": "Clinical impressions", "setting": "Pulmonary fibrosis; pulmonary fibrosis diagnosed as idiopathic, one subject followed for over two years", "value": "highly favorable"}, {"measurement": "Lung Connective Tissue Score, Mean", "setting": "[1]", "value": "0.95 +/-0.23"}, {"measurement": "Lung Connective Tissue Score, Mean", "setting": "[1]; listed as PIRFENIDONE", "value": 0.95}, {"measurement": "Lung Connective Tissue Score 0, Total (animals)", "setting": "[1]; [7]", "value": 5}, {"measurement": "Lung Connective Tissue Score 1, Total (animals)", "setting": "[1]; [7]", "value": 11}, {"measurement": "Lung Connective Tissue Score 2, Total (animals)", "setting": "[1]; [7]", "value": 2}, {"measurement": "Lung Connective Tissue Score 3, Total (animals)", "setting": "[1]; [7]", "value": 1}, {"measurement": "fibrosis of the ventricular myocardium (electrocardiogram maps and nuclear resonance determinations)", "setting": "[2]; one subject (diagnosed as terminal), after repeated coronary infarcts", "value": "objective evidence of the reduction of the fibrosis"}, {"measurement": "survival of the subject", "setting": "[2]; one subject diagnosed as terminal, drug terminated after 18 months", "value": "additional three years"}, {"measurement": "digital examination of the prostate", "setting": "[3]; all cases, in 3-4 weeks", "value": "detectable reduction in the size of the prostate"}, {"measurement": "Nocturia after therapy", "setting": "[3]; other two patients, before 3-4 times (every 2-3 hours)", "value": "once"}, {"measurement": "clinical results", "setting": "[3]; three elderly subjects (66-100 years)", "value": "very good to excellent"}, {"measurement": "Lung Dry Wt.", "setting": "[4]; [8]", "value": "52.4+/-0.9 Mg."}, {"measurement": "Lung FIBROSIS Scores (N/N), incidence of scores 3.0 or less", "setting": "[4]; [8]", "value": "3/5"}, {"measurement": "Lung FIBROSIS Scores", "setting": "[4]; GROUP II: cyclophosphamide 200 mg/kg i.p. plus 500 mg/kg/day p.o., scoring 0 through 6", "value": "2.99+/-0.75"}, {"measurement": "pulmonary fibrosis induced with cyclophosphamide", "setting": "[4]; mice, oral administration", "value": "removed"}, {"measurement": "Hyperplasia Scores 0 (number of dogs)", "setting": "[5]; 25 mg/kg/day oral", "value": 1}, {"measurement": "Hyperplasia Scores 1 (number of dogs)", "setting": "[5]; 25 mg/kg/day oral", "value": 1}, {"measurement": "Hyperplasia Scores 2 (number of dogs)", "setting": "[5]; 25 mg/kg/day oral", "value": 4}, {"measurement": "Hyperplasia Scores 3 (number of dogs)", "setting": "[5]; 25 mg/kg/day oral", "value": 0}, {"measurement": "Incidence of Normal Lung", "setting": "[5]; 25 mg/kg/day oral", "value": "1/6"}, {"measurement": "Average Scores", "setting": "[5]; 25 mg/kg/day oral, hyperplasia score 0-3, control 2.11+/-0.31", "value": "1.50+/-0.34"}, {"measurement": "Hyperplasia Scores 0 (number of dogs)", "setting": "[5]; 75 mg/kg/day oral", "value": 2}, {"measurement": "Hyperplasia Scores 1 (number of dogs)", "setting": "[5]; 75 mg/kg/day oral", "value": 2}, {"measurement": "Hyperplasia Scores 2 (number of dogs)", "setting": "[5]; 75 mg/kg/day oral", "value": 3}, {"measurement": "Hyperplasia Scores 3 (number of dogs)", "setting": "[5]; 75 mg/kg/day oral", "value": 1}, {"measurement": "Incidence of Normal Lung", "setting": "[5]; 75 mg/kg/day oral", "value": "2/8"}, {"measurement": "Average Scores", "setting": "[5]; 75 mg/kg/day oral, hyperplasia score 0-3, control 2.11+/-0.31", "value": "1.38+/-0.38"}, {"measurement": "Hyperplasia Scores 0 (number of dogs)", "setting": "[5]; 150 mg/kg/day oral", "value": 7}, {"measurement": "Hyperplasia Scores 1 (number of dogs)", "setting": "[5]; 150 mg/kg/day oral", "value": 2}, {"measurement": "Hyperplasia Scores 2 (number of dogs)", "setting": "[5]; 150 mg/kg/day oral", "value": 0}, {"measurement": "Hyperplasia Scores 3 (number of dogs)", "setting": "[5]; 150 mg/kg/day oral", "value": 0}, {"measurement": "Incidence of Normal Lung", "setting": "[5]; 150 mg/kg/day oral", "value": "7/9"}, {"measurement": "Average Scores", "setting": "[5]; 150 mg/kg/day orally in capsules, hyperplasia score 0-3, control 2.11+/-0.31, P<0.001, 150 mg/kg/day", "value": "0.22 +/-0.19"}, {"measurement": "Average Scores", "setting": "[5]; 150 mg/kg/day orally in capsules, hyperplasia score 0-3, control 2.11+/-0.31, P<0.001, listed as Pirfenidone, 150 mg/kg/day", "value": "0.22+/-0.15**"}, {"measurement": "recurrence of asbestos-induced fibrosis", "setting": "[6]; after drug had been discontinued for two months", "value": "did not recur"}, {"measurement": "lung cell-imbedded asbestos fibers", "setting": "[6]; electron microscope, confirmed by ashing of lung specimens and asbestos content", "value": "had been removed"}, {"measurement": "Lung Density, Average", "setting": "[6]; group average, asbestos + 500 mg/kg/day in the diet two months, asbestos only 2.53+/-0.23", "value": "1.17+/-0.10"}, {"measurement": "Pulmonary Fibrosis Score Electron Microscope, Average", "setting": "[6]; [9]", "value": "0.25+/-0.25"}, {"measurement": "Pulmonary Fibrosis Score Light Microscope, Average", "setting": "[6]; [9]", "value": "1.00+/-0.41"}, {"measurement": "pulmonary fibrosis induced with crysotile asbestos", "setting": "[6]; hamsters, oral", "value": "removed"}, {"measurement": "Pulmonary Fibrosis Score Electron Microscope", "setting": "[6]; [10]", "value": "0 (3×) and 1"}, {"measurement": "Pulmonary Fibrosis Score Light Microscope", "setting": "[6]; [10]", "value": "0 and 2 and 1 (2×)"}, {"measurement": "Lung Density", "setting": "[6]; individual hamsters, asbestos by inhalation 5 days, 500 mg/kg/day orally in the diet for two months, beginning two months after exposure, 500 mg/kg/day", "value": "0.98 and 1.04 and 1.26 and 1.41"}, {"measurement": "LD50", "setting": "Acute toxicity (LD), cat; iv", "value": 40, "unit": "mg/kg"}, {"measurement": "LD50", "setting": "Acute toxicity (LD), cat; po", "value": 500, "unit": "mg/kg"}]}]}
